PubChem BioAssay (NCI)
“And” between values parts separate entries of the source, which are not always exact repeats. Equal entries are not always repeated.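 Cultured in 96-well plates, cells were exposed to test compound for 48 hours across five concentrations. GI50 is the concentration that inhibits growth by half. At the TGI there is no net growth.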

What was measured:
Assay in all cases: NCI tumour cell line growth inhibition, 48 h
KM20L2 colon = system: KM20L2 colon
XF 498 CNS = system: XF 498 CNS
SNB-78 CNS = system: SNB-78 CNS
LXFL 529 NSCLC = system: LXFL 529 NSCLC
M19-MEL melanoma = system: M19-MEL melanoma
DMS 273 small cell lung = system: DMS 273 small cell lung
DLD-1 colon = system: DLD-1 colon
NCI-H23 lung = system: NCI-H23 lung
HOP-18 NSCLC = system: HOP-18 NSCLC
SF-539 CNS = system: SF-539 CNS
UACC-257 melanoma = system: UACC-257 melanoma
DMS 114 small cell lung = system: DMS 114 small cell lung
NCI/ADR-RES ovarian = system: NCI/ADR-RES ovarian
P388 leukemia = system: P388 leukemia

| Compound | TGI (KM20L2 colon) [µM] | TGI (XF 498 CNS) | TGI (SNB-78 CNS) | TGI (LXFL 529 NSCLC) [µM] | TGI (M19-MEL melanoma) | TGI (DMS 273 small cell lung) [µM] | TGI (DLD-1 colon) [µM] | TGI (NCI-H23 lung) [µM] | TGI (HOP-18 NSCLC) [µM] | TGI (SF-539 CNS) [µM] | TGI (UACC-257 melanoma) [µM] | TGI (DMS 114 small cell lung) [µM] | GI50 (XF 498 CNS) [µM] | GI50 (SNB-78 CNS) | GI50 (M19-MEL melanoma) [µM] | GI50 (NCI/ADR-RES ovarian) [µM] | TGI (NCI/ADR-RES ovarian) | GI50 (DMS 273 small cell lung) [µM] | TGI (P388 leukemia) [µM] |
| --- | --- | --- | --- | --- | --- | --- | --- | --- | --- | --- | --- | --- | --- | --- | --- | --- | --- | --- | --- |
| COC(=O)C(=C/c1ccc(OC)cc1)/C(C(=O)O)=C(/C)c1ccccc1 | > 100 | > 100 µM | > 100 µM | > 100 | > 100 µM | > 100 | > 100 | > 100 | > 100 | > 100 | > 100 |  |  |  |  |  |  |  |  |
| COc1cc2c(cc1OC)C(O)[C@H](Br)C(C)(C)O2 (stereo partly drawn) | > 100 | > 100 µM |  | > 100 | > 100 µM | > 100 | > 100 | > 100 | > 100 | > 100 | > 100 | > 100 |  |  |  |  |  |  |  |
| O=c1[nH]cc(COCC(F)(F)C(F)(F)C(F)(F)C(F)F)c(=O)[nH]1 | > 100 |  |  | > 100 | > 100 µM |  | > 100 | > 100 | > 100 |  | > 100 | > 100 |  |  |  |  |  |  |  |
| C=C1C(=O)O[C@H]2[C@H]1[C@@H](OC(=O)C=C(C)C)CC1=C[C@@H](C[C@@]3(C)O[C@@H]23)OC1=O |  | 3.79 µM and 4.51 µM | 15.1 µM and 40.2 µM |  | 8.29 µM and 16.7 µM |  | 11.8 | 13.5 | 10.2 | 5.29 | 6.88 |  | 2.4 | 2.35 µM and 10.6 µM | 4.37 | 3.89 | 6.18 µM and 13.4 µM | 24.7 | 0.914 |
| Cc1ccc2c(c1CCCC(C)(C)O)C(=O)C(=O)C(C(C)C)=C2O | > 100 |  |  | > 100 | > 100 µM | > 100 | > 100 | > 100 | > 100 | > 100 |  | > 100 |  |  |  |  |  |  |  |
| Nc1ccc(C(=O)NN2C(=O)C(Cl)C2c2ccccc2Cl)cc1 (stereo not drawn) | 29.9 | 31.5 µM | 33 µM | 5.23 | 20.5 µM | 12 | 23 | 24.9 | 8.87 | 20.2 | 26.8 | 18.8 |  |  |  |  |  |  |  |
| CCCCCC(C[N+]1(C)CCOCC1)C(=O)/C=C/c1ccccc1 (stereo not drawn) | 32.9 | 28.3 µM | 46.9 µM | 11.5 | 32 µM | 11.7 | 18 | 32 | 32.1 | 23.5 | 27.6 | 26 |  |  |  |  |  |  |  |
| C=CCn1c(=O)n(CC=C)c(=O)n(CC=C)c1=O | > 100 |  | > 100 µM | > 100 | > 100 µM | > 100 | > 100 | > 100 | > 100 | > 100 | > 100 | > 100 |  |  |  |  |  |  |  |
| O=C1NC(=O)C(CCO)(c2ccccc2)C(=O)N1 | > 100 | > 100 µM | > 100 µM |  | > 100 µM | > 100 | > 100 | > 100 | > 100 | > 100 | > 100 | > 100 |  |  |  |  | > 100 µM |  | > 100 |
| CC(=O)OCC1OC(Nc2ncc(-c3ccc(C)cc3)s2)C(OC(C)=O)C(OC(C)=O)C1OC(C)=O (stereo not drawn) |  |  | > 100 µM |  | > 31.6 µM | > 100 | > 100 | > 100 | > 100 | > 82.6 | 58.3 | > 100 |  |  |  |  | 78 µM |  | 72.5 |
